Test results as given in the supplement of paper PMC10307832.

What was measured:
Assay in all cases: relative viability (nuclei count vs DMSO), 5 days (fraction); higher = more cells survive
R406 + OSI-027 = compound: COc1cc(Nc2ncc(F)c(Nc3ccc4c(n3)NC(=O)C(C)(C)O4)n2)cc(OC)c1OC [R406] + COc1cccc2cc(-c3nc([C@H]4CC[C@H](C(=O)O)CC4)n4ncnc(N)c34)[nH]c12 [OSI-027] (partner 0.5 µM)
Summary of the method: (§1)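 The day after seeding in 1536-well plates, lung cancer cell lines were treated by pin tool with a single drug, or with a fixed anchor-drug dose together with five library-drug doses (not always all listed) in √10 steps. After 5 days, a combined fix-and-stain solution (final 0.05% Triton X-100, 1% formaldehyde, 1 ug/ml Hoechst) was added. Nuclei counted on 4× images gave relative viability as treated counts over vehicle counts, reported as the median of duplicate plates.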

R406 + Pictilisib = compound: COc1cc(Nc2ncc(F)c(Nc3ccc4c(n3)NC(=O)C(C)(C)O4)n2)cc(OC)c1OC [R406] + CS(=O)(=O)N1CCN(Cc2cc3nc(-c4cccc5[nH]ncc45)nc(N4CCOCC4)c3s2)CC1 [Pictilisib] (partner 1 µM)
Summary of the method: as §1

Daporinad + Lapatinib = compound: O=C(/C=C/c1cccnc1)NCCCCC1CCN(C(=O)c2ccccc2)CC1 [Daporinad] + CS(=O)(=O)CCNCc1ccc(-c2ccc3ncnc(Nc4ccc(OCc5cccc(F)c5)c(Cl)c4)c3c2)o1 [Lapatinib] (partner 2 µM)
Summary of the method: as §1

Daporinad + Dasatinib = compound: O=C(/C=C/c1cccnc1)NCCCCC1CCN(C(=O)c2ccccc2)CC1 [Daporinad] + Cc1nc(Nc2ncc(C(=O)Nc3c(C)cccc3Cl)s2)cc(N2CCN(CCO)CC2)n1 [Dasatinib] (partner 0.075 µM)
Summary of the method: as §1

| Cell Line | relative viability (R406 + OSI-027; first compound 0.08 µM) | relative viability (R406 + OSI-027; first compound 0.253 µM) | relative viability (R406 + OSI-027; first compound 0.8 µM) | relative viability (R406 + OSI-027; first compound 2.53 µM) | relative viability (R406 + OSI-027; first compound 8 µM) | relative viability (R406 + Pictilisib; first compound 0.08 µM) | relative viability (R406 + Pictilisib; first compound 0.253 µM) | relative viability (R406 + Pictilisib; first compound 0.8 µM) | relative viability (R406 + Pictilisib; first compound 2.53 µM) | relative viability (R406 + Pictilisib; first compound 8 µM) | relative viability (Daporinad + Lapatinib; first compound 0.0005 µM) | relative viability (Daporinad + Lapatinib; first compound 0.001581 µM) | relative viability (Daporinad + Lapatinib; first compound 0.005 µM) | relative viability (Daporinad + Lapatinib; first compound 0.01581 µM) | relative viability (Daporinad + Dasatinib; first compound 0.0005 µM) | relative viability (Daporinad + Dasatinib; first compound 0.001581 µM) | relative viability (Daporinad + Dasatinib; first compound 0.005 µM) | relative viability (Daporinad + Dasatinib; first compound 0.01581 µM) |
| --- | --- | --- | --- | --- | --- | --- | --- | --- | --- | --- | --- | --- | --- | --- | --- | --- | --- | --- |
| BEN | 0.291 | 0.299 | 0.286 | 0.298 | 0.281 | 0.581 | 0.642 | 0.57 | 0.623 | 0.447 | 0.646 | 0.688 | 0.858 | 1.11 | 0.316 | 0.251 | 0.318 | 0.414 |
| EMC-BAC-2 | 0.373 | 0.416 | 0.407 | 0.232 | 0.203 | 0.566 | 0.58 | 0.585 | 0.502 | 0.323 | 0.93 | 0.885 | 0.846 | 0.336 | 0.359 | 0.362 | 0.387 | 0.319 |
| LU99A | 0.322 | 0.283 | 0.308 | 0.253 | 0.276 | 0.368 | 0.296 | 0.357 | – | 0.211 | 0.839 | 1.14 | 0.98 | 1.17 | 0.539 | 0.492 | 0.708 | 0.547 |
| ABC-1 | 0.554 | 0.477 | 0.531 | 0.341 | 0.304 | 1 | 0.817 | 0.72 | 0.393 | 0.45 | 1.14 | 0.952 | 1.24 | 0.86 | 0.481 | 0.595 | 0.511 | 0.42 |
| NCI-H1793 | 0.251 | 0.273 | 0.303 | 0.116 | 0.158 | 0.367 | 0.354 | 0.492 | 0.168 | 0.23 | 0.337 | 0.935 | 0.535 | 0.805 | 0.43 | 0.397 | 0.418 | 0.499 |
| NCI-H1299 | – | – | – | – | – | 0.791 | 0.816 | 0.874 | 0.427 | 0.162 | 0.956 | 0.954 | 0.955 | 1.05 | – | – | – | – |
| EBC-1 | – | – | – | – | – | 0.462 | 0.371 | 0.528 | 0.26 | 0.162 | 0.238 | 0.216 | 0.206 | 0.17 | – | – | – | – |
| NCI-H2347 | 0.381 | 0.436 | 0.479 | 0.278 | 0.253 | 0.53 | 0.952 | 0.605 | 0.624 | 0.28 | 1.14 | 0.781 | 1.06 | 1.05 | 0.326 | 0.308 | 0.342 | 0.299 |
| NCI-H1993 | 0.546 | 0.521 | 0.55 | 0.515 | 0.552 | 0.769 | 0.814 | 0.862 | 0.604 | 0.928 | 0.78 | 0.811 | 0.977 | 0.793 | 0.548 | 0.481 | 0.664 | 0.676 |
| NCI-H322M | 0.524 | 0.514 | 0.602 | 0.348 | 0.347 | 0.519 | 0.484 | 0.57 | 0.235 | 0.333 | 0.648 | 0.671 | 0.584 | 0.597 | 0.272 | 0.266 | 0.259 | 0.259 |
